Source: ChEMBL document CHEMBL3580533, “Antagonism/Agonism modulation to build novel antihypertensives selectively triggering i1-imidazoline receptor activation” (ACS Med Chem Lett, 2015)
The source made the active and inactive calls. The rule behind the calls is not given here.

Key:
[1] = target: T1, Adrenergic receptor alpha-2 (Rattus norvegicus, UniProt P22086+P19328+P22909); test: Displacement of [3H]-clonidine from alpha2 adrenoreceptor in rat cortex membranes; type: cell membranes
T1 sequence (P22086 whole entry): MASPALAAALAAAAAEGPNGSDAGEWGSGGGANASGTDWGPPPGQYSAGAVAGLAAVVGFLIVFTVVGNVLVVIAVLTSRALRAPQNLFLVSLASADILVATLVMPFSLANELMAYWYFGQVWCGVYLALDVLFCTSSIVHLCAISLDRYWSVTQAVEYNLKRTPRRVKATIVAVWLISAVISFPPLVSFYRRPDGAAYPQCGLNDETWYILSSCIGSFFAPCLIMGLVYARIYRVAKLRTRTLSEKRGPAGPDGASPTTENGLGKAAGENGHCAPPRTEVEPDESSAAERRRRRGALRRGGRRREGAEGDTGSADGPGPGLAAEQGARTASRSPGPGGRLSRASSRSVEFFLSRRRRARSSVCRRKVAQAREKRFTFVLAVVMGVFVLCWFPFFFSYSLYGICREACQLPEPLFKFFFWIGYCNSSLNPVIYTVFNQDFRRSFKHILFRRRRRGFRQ
T1 sequence (P19328 whole entry): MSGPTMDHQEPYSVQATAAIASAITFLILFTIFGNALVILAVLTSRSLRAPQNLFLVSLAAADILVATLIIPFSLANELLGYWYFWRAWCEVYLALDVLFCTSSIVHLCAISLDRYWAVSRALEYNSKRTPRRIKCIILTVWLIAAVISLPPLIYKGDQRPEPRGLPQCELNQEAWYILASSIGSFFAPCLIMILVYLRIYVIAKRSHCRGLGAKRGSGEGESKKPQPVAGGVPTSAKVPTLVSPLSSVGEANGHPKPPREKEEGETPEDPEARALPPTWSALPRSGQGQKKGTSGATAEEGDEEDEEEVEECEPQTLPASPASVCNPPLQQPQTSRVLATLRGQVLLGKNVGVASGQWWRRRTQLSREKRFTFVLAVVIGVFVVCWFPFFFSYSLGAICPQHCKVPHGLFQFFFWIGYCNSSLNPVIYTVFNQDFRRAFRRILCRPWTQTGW
T1 sequence (P22909 whole entry): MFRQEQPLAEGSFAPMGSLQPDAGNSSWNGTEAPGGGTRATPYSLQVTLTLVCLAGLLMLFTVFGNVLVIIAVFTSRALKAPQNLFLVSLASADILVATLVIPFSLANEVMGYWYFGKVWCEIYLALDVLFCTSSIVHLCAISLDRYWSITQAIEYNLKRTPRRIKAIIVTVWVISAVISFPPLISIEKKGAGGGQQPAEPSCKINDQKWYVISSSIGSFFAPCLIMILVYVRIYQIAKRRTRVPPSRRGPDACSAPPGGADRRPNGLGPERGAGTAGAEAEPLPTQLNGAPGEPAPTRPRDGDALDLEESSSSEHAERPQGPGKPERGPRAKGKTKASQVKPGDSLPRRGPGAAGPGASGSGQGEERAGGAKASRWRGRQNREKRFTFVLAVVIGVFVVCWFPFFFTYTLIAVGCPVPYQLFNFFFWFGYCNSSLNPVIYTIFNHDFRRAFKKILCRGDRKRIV

Nischarin = Nischarin (Rattus norvegicus, UniProt Q4G017); test: Displacement of [125I]-p-iodoclonidin from I1-imidazoline receptor in rat PC12 cell membranes; set-up: species or system PC-12
Rattus norvegicus [2] = test: Reduction in heart rate in spontaneously hypertensive rat at 30 mg/kg, ip administered as single dose and measured 60 mins post dose by tail-cuff plethysmography; type: functional; settings: 1 h
Rattus norvegicus [3] = test: Reduction in mean arterial blood pressure in spontaneously hypertensive rat at 30 mg/kg, ip administered as single dose and measured 120 mins post dose by tail-cuff plethysmography; type: functional; settings: 2 h
Rattus norvegicus [4] = test: Reduction in heart rate in spontaneously hypertensive rat at 30 mg/kg, ip administered as single dose and measured 120 mins post dose by tail-cuff plethysmography; type: functional; settings: 2 h
Rattus norvegicus [5] = test: Reduction in mean arterial blood pressure in spontaneously hypertensive rat at 30 mg/kg, ip administered as single dose and measured 60 mins post dose by tail-cuff plethysmography; type: functional; settings: 1 h
Rattus norvegicus [6] = test: Reduction in heart rate in spontaneously hypertensive rat at 30 mg/kg, ip administered as single dose and measured 30 mins post dose by tail-cuff plethysmography; type: functional; settings: 0.5 h
Rattus norvegicus [7] = test: Reduction in mean arterial blood pressure in spontaneously hypertensive rat at 30 mg/kg, ip administered as single dose and measured 30 mins post dose by tail-cuff plethysmography; type: functional; settings: 0.5 h
PC-12 = test: Selectivity ratio, […]-imidazoline receptor in rat PC12 cell membranes to […] adrenoreceptor in rat cortex membranes; type: cell-based
Rattus norvegicus [8] = test: Reduction in mean arterial blood pressure in spontaneously hypertensive rat at 30 mg/kg, ip administered as single dose and measured 30 to 120 mins post dose pre-treated with 30 mg/kg, ip 2-(1-phenylpropan-2-yl)-4,5-dihydro-1H-imidazole by tail-cuff plethysmography; type: functional, organism-based

Nischarin, sequence (Q4G017 whole entry): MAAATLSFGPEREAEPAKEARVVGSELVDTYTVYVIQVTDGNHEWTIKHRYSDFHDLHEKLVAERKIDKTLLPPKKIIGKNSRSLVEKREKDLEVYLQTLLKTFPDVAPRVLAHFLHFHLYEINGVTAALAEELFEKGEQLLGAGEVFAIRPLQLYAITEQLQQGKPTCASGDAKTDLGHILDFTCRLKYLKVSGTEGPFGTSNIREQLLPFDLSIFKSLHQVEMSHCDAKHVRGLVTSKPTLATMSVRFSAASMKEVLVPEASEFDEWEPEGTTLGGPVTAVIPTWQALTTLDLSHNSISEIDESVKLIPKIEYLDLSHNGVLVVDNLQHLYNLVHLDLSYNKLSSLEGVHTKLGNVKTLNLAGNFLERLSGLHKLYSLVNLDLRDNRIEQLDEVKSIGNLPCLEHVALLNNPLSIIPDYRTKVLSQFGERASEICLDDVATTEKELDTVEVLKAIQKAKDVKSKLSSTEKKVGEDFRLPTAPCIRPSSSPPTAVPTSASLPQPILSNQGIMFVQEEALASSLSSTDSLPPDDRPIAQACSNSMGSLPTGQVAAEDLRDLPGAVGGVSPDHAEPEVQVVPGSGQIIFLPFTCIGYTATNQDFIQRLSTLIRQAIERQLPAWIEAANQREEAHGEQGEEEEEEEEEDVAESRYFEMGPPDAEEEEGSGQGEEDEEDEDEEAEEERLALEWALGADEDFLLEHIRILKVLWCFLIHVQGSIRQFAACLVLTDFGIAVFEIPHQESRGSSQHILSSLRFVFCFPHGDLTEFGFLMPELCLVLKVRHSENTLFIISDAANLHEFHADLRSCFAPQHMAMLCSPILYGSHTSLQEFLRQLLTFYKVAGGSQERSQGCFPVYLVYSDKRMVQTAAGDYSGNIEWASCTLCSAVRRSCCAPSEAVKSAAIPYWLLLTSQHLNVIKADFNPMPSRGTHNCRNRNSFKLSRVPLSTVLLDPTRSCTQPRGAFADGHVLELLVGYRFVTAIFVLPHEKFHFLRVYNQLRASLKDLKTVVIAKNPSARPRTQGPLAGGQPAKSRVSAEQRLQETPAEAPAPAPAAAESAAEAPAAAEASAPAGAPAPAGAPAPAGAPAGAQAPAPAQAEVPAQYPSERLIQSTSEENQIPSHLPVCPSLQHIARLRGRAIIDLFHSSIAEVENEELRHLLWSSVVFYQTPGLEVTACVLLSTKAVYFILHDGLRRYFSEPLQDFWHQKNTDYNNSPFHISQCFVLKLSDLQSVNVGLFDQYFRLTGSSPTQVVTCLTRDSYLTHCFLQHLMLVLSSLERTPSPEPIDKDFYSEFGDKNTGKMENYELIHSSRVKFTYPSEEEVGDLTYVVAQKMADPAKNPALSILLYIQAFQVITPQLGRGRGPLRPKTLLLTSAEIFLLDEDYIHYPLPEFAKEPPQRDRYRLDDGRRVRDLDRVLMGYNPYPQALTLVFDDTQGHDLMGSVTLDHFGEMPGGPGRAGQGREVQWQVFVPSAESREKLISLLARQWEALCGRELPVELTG

Compound	pKi [1]	Ki (Nischarin) [nM]	inhibition in vivo at 30 mg/kg (Rattus norvegicus [2]) [%]	inhibition in vivo at 30 mg/kg (Rattus norvegicus [3]) [%]	inhibition in vivo at 30 mg/kg (Rattus norvegicus [4]) [%]	inhibition in vivo at 30 mg/kg (Rattus norvegicus [5]) [%]	inhibition in vivo at 30 mg/kg (Rattus norvegicus [6]) [%]	inhibition in vivo at 30 mg/kg (Rattus norvegicus [7]) [%]	Ratio (PC-12)	inhibition (Rattus norvegicus [8])
CC(Cc1ccccc1-c1cccnc1)C1=NCCN1 (stereo not drawn)	< 6	> 1000								
Cc1ccccc1C[C@@H](C)C1=NCCN1	< 6	1050	4.18	3.01	0	12.7	9.17	8.67		
C[C@@H](Cc1ccccc1-c1ccccc1)C1=NCCN1		97.7								
CC(Oc1ccccc1-c1ccccc1)C1=NCCN1 (stereo not drawn) [BIPHENYLINE]		126								
CC(Cc1ccccc1-c1ccsc1)C1=NCCN1 (stereo not drawn)	< 6	63.1	19.7	10.8	11.2	35.1	26.4	24.8		
Cc1ccccc1C[C@H](C)C1=NCCN1	< 6	13.2	11.1	7.85	5.89	26	12	34.4		
CC(Cc1ccccc1Cl)C1=NCCN1 (stereo not drawn)	< 6	195	11.6	32.4	8.02	31.4	11.1	37.8		
CC(Cc1ccccc1-c1cccc(O)c1)C1=NCCN1 (stereo not drawn)	< 6	> 1000								
CC(Cc1ccccc1-c1ccccc1)C1=NCCN1 (stereo not drawn)	4.1	155	13.8	34.9	11.9	25.4	14.2	27.6	513	
C[C@H](Cc1ccccc1-c1ccccc1)C1=NCCN1		2240								
CC(Oc1ccccc1)C1=NCCN1 (stereo not drawn)		309								
Cc1ccccc1CC(C)C1=NCCN1 (stereo not drawn)	< 6	23.4	13.6	53.1	7.66	29.7	11.7	32.4		inactive
